Data published in patent US20230130766A1 (SALK INSTITUTE FOR BIOLOGICAL STUDIES, priority 2020, published 2023).

target: T1, ULK1 (Homo sapiens, UniProt O75385); test: ULK1 inhibition assay; assay type: biochemical; details: * = tested as a mixture of regioisomers
T1 sequence (O75385 1-1050): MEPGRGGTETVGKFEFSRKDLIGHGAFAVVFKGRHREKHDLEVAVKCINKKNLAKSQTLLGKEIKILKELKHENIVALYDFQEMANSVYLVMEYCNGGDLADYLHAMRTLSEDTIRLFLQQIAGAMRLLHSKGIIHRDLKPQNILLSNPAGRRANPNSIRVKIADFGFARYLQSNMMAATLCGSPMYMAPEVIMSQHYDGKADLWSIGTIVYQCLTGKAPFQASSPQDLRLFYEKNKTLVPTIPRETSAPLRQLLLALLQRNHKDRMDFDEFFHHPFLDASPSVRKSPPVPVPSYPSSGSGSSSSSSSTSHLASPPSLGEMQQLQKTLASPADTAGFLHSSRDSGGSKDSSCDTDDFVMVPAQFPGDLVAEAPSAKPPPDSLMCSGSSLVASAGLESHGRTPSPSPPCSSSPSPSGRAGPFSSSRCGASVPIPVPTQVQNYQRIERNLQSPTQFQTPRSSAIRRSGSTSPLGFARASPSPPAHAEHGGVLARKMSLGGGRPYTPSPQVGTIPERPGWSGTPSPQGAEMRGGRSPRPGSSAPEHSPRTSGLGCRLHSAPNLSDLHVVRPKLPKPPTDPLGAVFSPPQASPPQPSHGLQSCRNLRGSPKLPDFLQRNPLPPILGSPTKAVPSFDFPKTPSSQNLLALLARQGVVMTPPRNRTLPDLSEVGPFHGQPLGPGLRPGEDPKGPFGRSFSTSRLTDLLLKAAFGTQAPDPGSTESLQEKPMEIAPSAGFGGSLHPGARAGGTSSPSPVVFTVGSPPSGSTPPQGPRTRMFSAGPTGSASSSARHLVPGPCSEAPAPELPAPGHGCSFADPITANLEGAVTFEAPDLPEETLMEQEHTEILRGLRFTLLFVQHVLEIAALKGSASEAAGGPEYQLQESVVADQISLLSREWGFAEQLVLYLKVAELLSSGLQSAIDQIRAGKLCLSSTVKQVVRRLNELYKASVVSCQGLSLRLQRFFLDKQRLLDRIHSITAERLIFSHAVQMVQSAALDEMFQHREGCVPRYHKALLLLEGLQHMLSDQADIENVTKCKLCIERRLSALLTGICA

Row | SMILES | IC50
1 | CNC(=O)c1ccccc1Oc1nc(Nc2cc(OC)ccc2OC)ncc1C(F)(F)F [Compound 109a] | > 2000 nM
2 | COc1ccc(OC)c(Nc2ncc(C(F)(F)F)c(O)n2)c1 [Compound 109b] | > 2000 nM
3 | CNC(=O)c1ccccc1Oc1nc(Nc2ccccc2)ncc1Br [Compound 111] | > 2000 nM
4 | CNC(=O)c1ccccc1Oc1nc(Nc2cc(Br)ccc2C)ncc1Br [Compound 112] | > 2000 nM
5 | CNC(=O)c1ccccc1Oc1nc(Nc2cccc(F)c2F)ncc1C(F)(F)F [Compound 113] | > 2000 nM
6 | Clc1cnc(Nc2ccccc2)nc1Nc1ccccc1 [Compound 114] | > 2000 nM
7 | CNC(=O)c1ccccc1Oc1nc(Nc2cccc(OC)c2OC)ncc1C(F)(F)F [Compound 115a] | > 2000 nM
8 | COc1cccc(Nc2ncc(C(F)(F)F)c(O)n2)c1OC [Compound 115b] | > 2000 nM
9 | CNC(=O)c1ccccc1Oc1nc(Nc2ccccc2SC)ncc1C(F)(F)F [Compound 116a] | > 2000 nM
10 | CSc1ccccc1Nc1ncc(C(F)(F)F)c(Nc2ccccc2SC)n1 [Compound 116b] | > 2000 nM
11 | CNC(=O)c1ccccc1Sc1nc(Nc2cc(OC)ccc2C)ncc1C(F)(F)F [Compound 117] | > 2000 nM
12 | O=C1CCc2cc(Nc3ncc(C(F)(F)F)c(Nc4ccccc4N4CCOCC4)n3)ccc2N1 [Compound 118a] | < 200 nM
13 | O=C1CCc2cc(Nc3nc(Nc4ccccc4N4CCOCC4)ncc3C(F)(F)F)ccc2N1 [Compound 118b] | > 2000 nM
14 | Oc1ncc(C(F)(F)F)c(Nc2ccccc2N2CCOCC2)n1 [Compound 118c] | > 2000 nM
15 | COc1cccc(Nc2nc(Nc3ccc4c(c3)CCC(=O)N4)ncc2C(F)(F)F)c1 [Compound 119] | < 200 nM
16 | O=C1CCc2cc(Nc3ncc(C(F)(F)F)c(Nc4ccccc4OC(F)F)n3)ccc2N1 [Compound 120a] | < 200 nM
17 | O=C1CCc2cc(Nc3ncc(C(F)(F)F)c(Nc4ccc5c(c4)CCC(=O)N5)n3)ccc2N1 [Compound 120c] | < 200 nM
18 | COc1cc(N2CCOCC2)ccc1Nc1nc(Nc2ccc3c(c2)CCC(=O)N3)ncc1C(F)(F)F [Compound 123a] | < 200 nM
19 | COc1cc(N2CCOCC2)ccc1Nc1ncc(C(F)(F)F)c(Nc2ccc3c(c2)CCC(=O)N3)n1 [Compound 123b] | < 200 nM
20 | FC(F)(F)c1cnc(Nc2ccc3c(c2)OCO3)nc1Nc1ccc2c(c1)OCO2 [Compound 124c] | < 200 nM
21 | Cc1ccc(Nc2nc(Nc3ccc4c(c3)CCC(=O)N4)ncc2C(F)(F)F)cc1C [Compound 125] | < 200 nM

Row | SMILES | IC50
22 | CNC(=O)c1cccc(Nc2nc(Nc3ccc4c(c3)CCC(=O)N4)ncc2C(F)(F)F)c1 [Compound 128] | < 200 nM
23 | O=C1CCc2cc(Nc3ncc(C(F)(F)F)c(Nc4ccc5c(c4)CCC5)n3)ccc2N1 [Compound 129] | < 200 nM
24 | O=C1CCc2cc(Nc3ncc(C(F)(F)F)c(NC4Cc5ccccc5C4)n3)ccc2N1 [Compound 130a] | < 200 nM
25 | O=C1CCc2cc(Nc3nc(NC4Cc5ccccc5C4)ncc3C(F)(F)F)ccc2N1 [Compound 130b] | > 2000 nM
26 | CC(=O)Nc1ccc(Nc2nc(Nc3ccc4c(c3)CCC(=O)N4)ncc2C(F)(F)F)cc1 [Compound 132] | < 200 nM
27 | COc1cccc(Nc2nc(Nc3ccc4c(c3)OCCO4)ncc2C(F)(F)F)c1 [Compound 133] | < 200 nM
28 | O=C1CCc2cc(Nc3ncc(Cl)c(Nc4ccc5c(c4)CCC(=O)N5)n3)ccc2N1 [Compound 134] | < 200 nM
29 | COc1cnc(Nc2ccc3c(c2)CCC(=O)N3)nc1Nc1ccc2c(c1)CCC(=O)N2 [Compound 135] | > 2000 nM
30 | COc1cccc(Nc2nc(Nc3ccc4c(c3)CCC(=O)N4)ncc2Br)c1 [Compound 142] | < 200 nM
31 | CS(=O)(=O)c1cccc(CNc2nc(Nc3ccc4[nH]ccc4c3)ncc2Br)c1 [Compound 153] | > 2000 nM
32 | Brc1cnc(Nc2ccc3[nH]ccc3c2)nc1Nc1ccccn1 [Compound 154] | < 200 nM
33 | O=C1CCc2cc(Nc3ncc(Br)c(Nc4ccccn4)n3)ccc2N1 [Compound 155] | < 200 nM
34 | COc1ccc(Nc2nc(Nc3ccc4c(c3)CCC(=O)N4)ncc2Br)cn1 [Compound 156] | < 200 nM
35 | O=C1CCc2cc(Nc3ncc(Br)c(NC4CC4)n3)ccc2N1 [Compound 159] | < 200 nM
36 | FC(F)(F)c1cnc(NC2CC2)nc1NC1CC1 [Compound 169] | > 2000 nM
37 | CNC(=O)c1ccccc1Oc1nc(Nc2cc(OC)ccc2C)ncc1Br [Compound 170] | > 2000 nM
38 | CCCCOc1nc(Nc2cc(OC)c(OC)c(OC)c2)ncc1Br [Compound 173] | < 200 nM
39 | Brc1cnc(Nc2cnc3[nH]ccc3c2)nc1NC1CC1 [Compound 174] | < 200 nM
40 | O=C1CCc2cc(Nc3ncc(C(F)(F)F)c(OC4CCC4)n3)ccc2N1 [Compound 175] | < 200 nM
41 | FC(F)(F)c1cnc(Nc2cnc3[nH]ccc3c2)nc1Nc1ccc2c(c1)OCO2 [Compound 177] | < 200 nM
42 | CC1CN1c1nc(Nc2ccc3c(c2)CCC(=O)N3)ncc1C(F)(F)F (stereo not shown) [Compound 183a] | > 2000 nM

Continued, values first:

Row | IC50 | SMILES
43 | < 200 nM | O=C1CCc2cc(Nc3ncc(C(F)(F)F)c(NC4CC4)n3)ccc2N1 [Compound 131a]
44 | < 200 nM | O=C1CCc2cc(Nc3nc(NC4CC4)ncc3C(F)(F)F)ccc2N1 [Compound 131b]
45 | > 2000 nM | Fc1c(Nc2ncc(C(F)(F)F)c(Nc3ccc4c(c3)OCO4)n2)cccc1C(F)(F)F [Compound 141a]
46 | < 200 nM | Fc1c(Nc2nc(Nc3ccc4c(c3)OCO4)ncc2C(F)(F)F)cccc1C(F)(F)F [Compound 141b]
47 | < 200 nM | COc1cccc(Nc2nc(Nc3ccc4c(c3)CCC(=O)N4)ncc2Cl)c1 [Compound 143a]
48 | < 200 nM | COc1cccc(Nc2ncc(Cl)c(Nc3cccc(OC)c3)n2)c1 [Compound 143b]
49 | < 200 nM | O=C1CCc2cc(Nc3ncc(C(F)(F)F)c(NC4CCC4)n3)ccc2N1 [Compound 150a]
50 | < 200 nM | O=C1CCc2cc(Nc3nc(NC4CCC4)ncc3C(F)(F)F)ccc2N1 [Compound 150b]
51 | < 200 nM | COCCNc1nc(Nc2ccc3c(c2)CCC(=O)N3)ncc1C(F)(F)F [Compound 151a]
52 | < 200 nM | COCCNc1ncc(C(F)(F)F)c(Nc2ccc3c(c2)CCC(=O)N3)n1 [Compound 151b]
53 | < 200 nM | FC(F)(F)c1cnc(Nc2cnc3[nH]ccc3c2)nc1NC1CC1 [Compound 152a]
54 | < 200 nM | FC(F)(F)c1cnc(Nc2ccc3c(c2)OCCO3)nc1NC1CC1 [Compound 158a]
55 | < 200 nM | FC(F)(F)c1cnc(NC2CC2)nc1Nc1ccc2c(c1)OCCO2 [Compound 158b]
56 | < 200 nM | O=C1CCc2cc(Nc3ncc(C(F)(F)F)c(NC4CCCC4)n3)ccc2N1 [Compound 160a]
57 | < 200 nM | FC(F)(F)c1cnc(Nc2cnc3[nH]ccc3c2)nc1NC1CCC1 [Compound 161a]
58 | < 200 nM | FC(F)(F)c1cnc(NC2CCC2)nc1Nc1cnc2[nH]ccc2c1 [Compound 161b]

Row | IC50 | SMILES
59 | > 2000 nM | FC(F)(F)c1cnc(NC2Cc3ccccc3C2)nc1Nc1ccc2c(c1)OCO2 [Compound 163a]
60 | > 2000 nM | FC(F)(F)c1cnc(Nc2ccc3c(c2)OCO3)nc1NC1Cc2ccccc2C1 [Compound 163b]
61 | > 2000 nM | FC(F)(F)c1cnc(N2CCCC2)nc1Nc1ccc2c(c1)OCO2 [Compound 164a]
62 | > 2000 nM | FC(F)(F)c1cnc(N2CCC2)nc1Nc1ccc2c(c1)OCO2 [Compound 166a]
63 | < 200 nM | FC(F)(F)c1cnc(Nc2ccc3c(c2)OCO3)nc1N1CCC1 [Compound 166b]
64 | < 200 nM | FC(F)(F)c1cnc(NCC2CC2)nc1Nc1ccc2c(c1)OCO2 [Compound 167a]
65 | < 200 nM | FC(F)(F)c1cnc(Nc2ccc3c(c2)OCO3)nc1NCC1CC1 [Compound 167b]
66 | < 200 nM | FC(F)(F)c1cnc(NC2CCC2)nc1Nc1ccc2c(c1)OCO2 [Compound 168a]
67 | < 200 nM | COc1cc(Nc2ncc(Br)c(N(C)C(=O)c3ccccc3O)n2)cc(OC)c1OC [Compound 171b]
68 | < 200 nM | O=C1CCc2cc(Nc3ncc(C(F)(F)F)c(Nc4ccc5c(c4)OC(F)(F)O5)n3)ccc2N1 [Compound 178a]
69 | < 200 nM | O=C1CCc2cc(Nc3nc(Nc4ccc5c(c4)OC(F)(F)O5)ncc3C(F)(F)F)ccc2N1 [Compound 178b]
70 | < 200 nM | O=C1CCc2cc(Nc3ncc(C(F)(F)F)c(OC4Cc5ccccc5C4)n3)ccc2N1 [Compound 180a]
71 | > 2000 nM | O=C1CCc2cc(Nc3nc(OC4Cc5ccccc5C4)ncc3C(F)(F)F)ccc2N1 [Compound 180b]
72 | < 200 nM | FC(F)(F)c1cnc(Nc2cnc3[nH]ccc3c2)nc1Nc1ccccc1 [Compound 181a]
73 | < 200 nM | CNc1nc(Nc2cnc3[nH]ccc3c2)ncc1C(F)(F)F [Compound 182a]
